In publication PMC12421899, “Structural and molecular basis for phosphate recognition by SAR11 bacteria” (mBio, 2025):
Like-named read-outs stand apart in the source and are kept apart here.

What was measured:
CpPstS = experiment: MST-binding assay of CpPstS; design: species or system Candidatus Pelagibacter sp. HTCC7211; conditions: 25°C
Procedure: To analyze the binding affinity of CpPstS to phosphate, the microscale thermophoresis (MST)-binding assay was performed using the Monolith NT.115 instrument (NanoTemper Technologies GmbH). Based on previous studies showing that SAR11_1179 has a high binding affinity to phosphate ([33]), we purified the CpPstS protein under denaturing conditions and refolded it for the MST assay. […]. The high-affinity phosphate-binding affinity of CpPstS is consistent with that previously reported for SAR11_1179 ([33]). To further investigate the molecular mechanism underlying the high-affinity phosphate binding of CpPstS, we subsequently conducted structural biology studies on CpPstS.
Previous studies have shown that PstSCAB specifically transports inorganic phosphate ([10], [41], [42]). […] We therefore speculate that the larger substrate-binding cavity of CpPstS may allow it to bind to both phosphate and larger organic phosphorus compounds. To test this hypothesis, we conducted an MST-binding assay. […] […].
Using primers CppstS-F/CppstS-R, the CppstS gene was PCR amplified from the Candidatus Pelagibacter sp. HTCC7211 strain and inserted into the NdeI/XhoI restriction sites of the pET-22b vector containing a C-terminal His-tag (Table S3). The CpPstS and the selenomethionine (SeMet) derivative of CpPstS were expressed in E. coli BL21(DE3) cells under different culture conditions. For CpPstS protein expression for MST-binding assay, cells were cultured at 37°C in LB medium supplemented with 100 µg/mL ampicillin to an OD600 of 0.8–1.0, and induction was initiated with 0.35 mM isopropyl-β-D-thiogalactopyranoside (IPTG) at 15°C for 16 hours. For SeMet-CpPstS protein expression for crystallization, the SeMet-CpPstS protein was overexpressed in E. coli BL21(DE3) using M9 minimal medium supplemented with selenomethionine, lysine, leucine, valine, isoleucine, threonine, and phenylalanine ([50]). The overexpression was induced with 0.35 mM IPTG at 15°C for 16 hours. The purification of CpPstS for MST-binding assay was under denaturing conditions, cultured E. coli BL21(DE3) cells were collected by centrifugation, resuspended in lysis buffer (40 mM Tris-HCl [pH 8.0], 200 mM NaCl, 5% [vol/vol] glycerol, 2 mM EDTA, and 0.1 mM phenylmethanesulfonyl fluoride), and fractured by pressure crusher (JNBIO, China). The CpPstS protein was first purified by affinity chromatography on a Ni^2+-NTA column (Qiagen, Germany), washed with denaturing Ni binding buffer (8 M urea, 20 mM Tris, 250 mM NaCl, and 20 mM imidazole, pH 8.0) and eluted with denaturing Ni elution buffer (8 M urea, 20 mM Tris, 250 mM NaCl, and 250 mM imidazole, pH 8.0). […]
MST technology was used to quantify the binding affinities of NaH₂PO₄, Mpn, Glycerol-3P, and Glucose-6P to CpPstS. […]

[1] = biological target: Synechococcus sp. WH8102 PstS1b; conditions: read-out: Kd of PstS1b for phosphate; cited from earlier work
[2] = biological target: Synechococcus sp. WH8102 PstS1a; conditions: read-out: Kd of PstS1a for phosphate; cited from earlier work
[3] = biological target: Synechococcus sp. WH8102 PstS2; conditions: read-out: Kd of PstS2 for phosphate; cited from earlier work
[4] = 40 mM MES pH 7.2, 0.005% Tween-20, read-out: Kd of CpPstS for organic phosphorus compounds

Row | Compound | Kd (CpPstS; [4]) | Kd (CpPstS; refolded CpPstS, 40 mM MES pH 7.2, 0.005% Tween-20, NaH2PO4 titrated from 1.53 nM to 50 µM, listed as NaH2PO4, read-out: Kd (dissociation constant) of CpPstS for phosphate) | Kd (CpPstS; refolded CpPstS, 40 mM MES pH 7.2, 0.005% Tween-20, NaH2PO4 titrated from 1.53 nM to 50 µM, read-out: Kd (dissociation constant) of CpPstS for phosphate) | Kd [1] | Kd [2] | Kd [3]
1 | O=C[C@H](O)[C@@H](O)[C@H](O)[C@H](O)COP(=O)(O)O [glucose-6-phosphate] | 668 ± 253 µM | – | – | – | – | –
2 | O=P(O)(O)OCC(O)CO (stereo not shown) [glycerol-3-phosphate] | 105 ± 44.6 µM | – | – | – | – | –
3 | phosphate | – | 0.112 ± 0.0805 µM | 0.112 µM | 0.44 µM | 3.3 µM | 4.3 µM
